Legend:
body core temperature = assay: Body core temperature during 10 day chronic dosing; conditions: b.i.d. oral: nepicastat 5, 15, 50 mg/kg; SKF-102698 50 mg/kg; clonidine 20 ug/kg; d-amphetamine 2 mg/kg; days 1, 5, 10
Procedure: The effects of chronic dosing of nepicastat were examined. Between three and thirteen days prior to the first dosing day the rats were placed inside the startle apparatus and after a five minute acclimation period they were presented with a 118 dB noise burst on average once a minute (a variable inter-trial interval ranging between 30 and 90 seconds will be used) for 20 minutes. The startle responses were measured and a mean for the last twenty startle response was calculated for each rat.
Rat body core temperatures were obtained by inserting the rectal probe 2 cm into the colon of each rat. Each rat's body core temperature was measured three times and the average of the three reading was calculated. Body core temperature readings were obtained immediately prior to the ten day chronic dosing schedule (to obtain a baseline), and three and half hour after the morning daily dose of nepicastat, and SKF-102698, and 15 minutes prior to the daily administration of clonidine and d-amphetamine, on dosing days one, five and ten. […] Both clonidine (an alpha2 agonist), and d-amphetamine (a dopamine releaser) were used as the positive controls for this assay.
An overall one-way ANOVA with a main effect for treatment was performed at each time on the change from baseline for each animal. Subsequent t-tests were performed for each comparison of interest.

[1] = biological target: all other receptors examined; assay: Radioligand filtration binding (Example 19)
Procedure: (§1) The affinity of nepicastat was determined in the bindings assays outlined in FIG. 97. Standard radioligand filtration binding methods were used. Competition binding data were analyzed by iterative curve fitting to a four parameter logistic equation. Hill coefficients and IC50 were obtained directly. pKi (−log of Ki) of competing ligands were calculated from IC50 values using the Cheng-Prusoff equation.

alpha1 receptors = assay: Radioligand filtration binding (Example 19)
Procedure: as §1

[2] = tested on: tissue norepinephrine and dopamine levels; assay: Tissue catecholamines in beagle dogs, 10, 30, 60 mg/kg/day for 4.5 days; format: in vivo
Procedure: This study was performed to determine the dopamine and norepinephrine concentrations in kidney medulla and kidney cortex from dogs dosed with nepicastat. Adult male beagle dogs were randomly assigned to four groups of 8 dogs per group and dosed by oral administration with nepicastat. Nepicastat was delivered in doses of 5, 15 and 30 mg/kg placed in single capsules. Vehicle was an empty capsule. Each dog received 2 doses daily, morning and afternoon (8-10 hours apart) for four days. On the fifth day, each dog received a single dose in the morning and the dogs were euthanized six hours after the last dose. Samples of kidney medulla and kidney cortex were rapidly harvested, weighed, placed in cold 0.4 M perchloric acid, frozen in liquid nitrogen and stored at −70° C.
To quantitate concentrations of norepinephrine (NE) and dopamine (D), each tissue was homogenized by brief sonication in 0.4 M perchloric acid. After sonication, the homogenates were centrifuged at 13,000 rpm in a microfuge for 30 minutes at 4° C. An aliquot of each supernatant was removed and spiked with 3,4-dihydroxybenzylamine (DHBA) as internal standard. The extract from each sample was subjected to HPLC separation using electrochemical detection. The method has a quantitation limit of 2.0 ng/mL and a linear range of 2.0 ng/mL to 400 ng/mL for each analyte.
Nepicastat was weighed and put into capsules (size 13—Torpac; East Hanover, N.J.) to yield doses of 5, 15, and 30 mg/kg per capsule (given b.i.d. to yield doses of 10, 30 and 60 mg/kg/day). The initial dog weight was used to determine the dose for each animal. Dogs receiving 0 mg/kg/day received empty capsules (placebo). All doses of nepicastat were administered as free base equivalents.
Thirty-two male beagle dogs, weighing 10-12 kg, were randomly assigned to one of the following 4 treatment groups (n=8 per group): nepicastat at 0 mg/kg/day (placebo), 10 mg/kg/day (5 mg/kg b.i.d.), 30 mg/kg (15 mg/kg b.i.d.), or 60 mg/kg/day (30 mg/kg b.i.d.). Dog numbers 1-16 were assigned as dose group A and dog numbers 17-32 as dose group B. The terminal surgery for tissue harvest was performed over 2 days with 16 animals studied per day. Two or 3 days before the first compound administration each dog was weighed and skin regions overlying both cephalic, saphenous and jugular veins were shaved. Dosing consisted of oral administration of one capsule with the second given 8-10 hr later. Dogs were dosed as scheduled on days 1-3. On day 4, prior to the AM dose, 3 ml of blood were obtained from a jugular vein for determination of baseline plasma compound levels. The dog was then administered the AM dose, and at 1, 2, 4 and 8 hr following the dose additional 3 ml blood samples were collected for determination of plasma compound levels. Blood samples were put into tubes containing heparin, centrifuged at 4° C. and stored at −20° C. until analysis. The PM dose was then administered as scheduled. The AM dose was administered as scheduled on the days of surgery. Approximately 6 hr after the AM dose, a final 3 ml blood sample was taken from the jugular vein for determination of plasma compound levels. The dog was then anesthetized with pentobarbital Na (˜40 mg/kg), given iv in a cephalic or saphenous vein, and delivered to the necropsy room where an additional dose of pentobarbital Na was given (˜80 mg/kg, iv). The left ventricle, renal artery, kidney, renal medulla, renal cortex and cerebral cortex were then rapidly harvested, weighed, put into 2 ml iced 0.4M perchloric acid, frozen in liquid nitrogen and stored at −70° C. until analysis for catecholamines by HPLC using electrochemical detection. All tissue samples were divided into 2 portions, the second of which were immediately frozen in liquid nitrogen and stored at −70° C. for determination of tissue compound levels. A third transmural sample taken from the left ventricle was immediately frozen in liquid nitrogen and stored at −70° C. for use in receptor binding studies. […]

plasma renin activity = assay: Plasma renin activity after 5 days oral dosing; format: in vivo, SHR; conditions: 30 and 100 mg/kg/d p.o. for 5 days
[3] = 60 mg/kg/day, marginal (0.05<p<0.10)

Fc1cc(F)cc(Cn2cc[nH]c2=S)c1 [SKF 102698, reference compound]
body core temperature (body core temperature): Lack of Effect

Cl.NCc1c[nH]c(=S)n1[C@H]1CCc2c(F)cc(F)cc2C1 [nepicastat, (S)-5-Aminomethyl-1-(5,7-difluoro-1,2,3,4-tetrahydronaphth-2-yl)-2,3-dihydro-2-thioxo-1H-imidazole hydrochloride]
pKi [1]: < 6.2 | pKi (alpha1 receptors): 6.9-6.7 | decrease in norepinephrine, left ventricle ([2]; 10 mg/kg/day): 85% | decrease in norepinephrine, renal artery ([2]; 10 mg/kg/day): 86% | decrease in norepinephrine, renal cortex ([2]; 10 mg/kg/day): 86% | decrease in norepinephrine, renal medulla ([2]; 10 mg/kg/day): 72% | increase in dopamine, cerebral cortex ([2]; 10 mg/kg/day): 632% | increase in dopamine, renal artery ([2]; 10 mg/kg/day): 180% | increase in dopamine, renal cortex ([2]; 10 mg/kg/day): 156% | increase in dopamine/norepinephrine ratio, cerebral cortex ([2]; 10 mg/kg/day): 531% | increase in dopamine/norepinephrine ratio, left ventricle ([2]; 10 mg/kg/day): 852% | increase in dopamine/norepinephrine ratio, renal artery ([2]; 10 mg/kg/day): 1711% | increase in dopamine/norepinephrine ratio, renal cortex ([2]; 10 mg/kg/day): 1653% | increase in dopamine/norepinephrine ratio, renal medulla ([2]; 10 mg/kg/day): 555% | increase in dopamine, renal medulla ([2]; 10 mg/kg/day, marginal (0.05<p<0.10)): 150% | decrease in norepinephrine, left ventricle ([2]; 30 mg/kg/day): 58% | decrease in norepinephrine, renal artery ([2]; 30 mg/kg/day): 81% | decrease in norepinephrine, renal cortex ([2]; 30 mg/kg/day): 66% | increase in dopamine, renal artery ([2]; 30 mg/kg/day): 273% | increase in dopamine, renal cortex ([2]; 30 mg/kg/day): 502% | increase in dopamine, renal medulla ([2]; 30 mg/kg/day): 522% | increase in dopamine/norepinephrine ratio, cerebral cortex ([2]; 30 mg/kg/day): 86% | increase in dopamine/norepinephrine ratio, left ventricle ([2]; 30 mg/kg/day): 279% | increase in dopamine/norepinephrine ratio, renal artery ([2]; 30 mg/kg/day): 1767% | increase in dopamine/norepinephrine ratio, renal cortex ([2]; 30 mg/kg/day): 1440% | increase in dopamine/norepinephrine ratio, renal medulla ([2]; 30 mg/kg/day): 636% | reduction in norepinephrine, cerebral cortex ([2]; 30 mg/kg/day): 63% | increase in dopamine, cerebral cortex ([2]; 30 mg/kg/day, marginal (0.05<p<0.10)): 174% | decrease in norepinephrine, left ventricle ([2]; 60 mg/kg/day): 79% | decrease in norepinephrine, renal artery ([2]; 60 mg/kg/day): 85% | decrease in norepinephrine, renal cortex ([2]; 60 mg/kg/day): 85% | increase in dopamine, cerebral cortex ([2]; 60 mg/kg/day): 411% | increase in dopamine, renal artery ([2]; 60 mg/kg/day): 268% | increase in dopamine, renal cortex ([2]; 60 mg/kg/day): 208% | increase in dopamine/norepinephrine ratio, cerebral cortex ([2]; 60 mg/kg/day): 612% | increase in dopamine/norepinephrine ratio, left ventricle ([2]; 60 mg/kg/day): 607% | increase in dopamine/norepinephrine ratio, renal artery ([2]; 60 mg/kg/day): 1944% | increase in dopamine/norepinephrine ratio, renal cortex ([2]; 60 mg/kg/day): 1693% | increase in dopamine/norepinephrine ratio, renal medulla ([2]; 60 mg/kg/day): 677% | decrease in norepinephrine, renal medulla [2, 3]: 69% | increase in dopamine, renal medulla [2, 3]: 156% | dopamine levels, left ventricle ([2]; 10, 30 and 60 mg/kg/day): No significant changes | norepinephrine levels, cerebral cortex ([2]; 10 and 60 mg/kg/day): not significantly (p>0.01) affected | plasma renin activity (plasma renin activity): did not alter plasma renin activity

From patent US20090054403A1, “Treatment of Post-Traumatic Stress Disorder” (priority 2007, published 2009)
